# Key:
# GFP-Hsp70i = molecular target: T1, GFP-Hsp70i (Homo sapiens, UniProt P0DMV8); assay: FLECS elution of GFP-Hsp70i from γ-phosphate-linked ATP resin; type: binding
# T1 construct: host or cells: HEK 293T
# Description: (§1) FLECS Screen: A pEGFP-tagged Hsp70i was (plasmid 15215, Addgene, Cambridge, Mass.) used in the FLECS assay and was originally cloned according to [Zeng et al. (2004). Hsp70 dynamics in vivo: effect of heat shock and protein aggregation. Journal of cell science 117, 4991-5000]. ATP used in the assay was purchased from Sigma (St. Louis, Mo.) and a 200 mM stock was prepared with low salt buffer (150 mM NaCl, 25 mM Tris, pH 7.5, 60 mM MgCl2). The γ-phosphate ATP sepharose was synthesized as previously described and stored in low salt buffer [Haystead et al. (1993). Gamma-phosphate-linked ATP-sepharose for the affinity purification of protein kinases. Rapid purification to homogeneity of skeletal muscle mitogen-activated protein kinase kinase. European journal of biochemistry/FEBS 214, 459-467]. FuGENE 6 transfection reagent (Roche, Mannheim, Germany) was used for transfection of GFP-Hsp70i into HEK 293T cells, following the manufacturer protocol. The transfection ensued for 48 hours, upon which time the cells were harvested and lysed in cell lysis buffer (150 mM NaCl, 50 mM Tris, pH 7.5, 1% Triton X-100, 1 mM EDTA, 1 mM DTT, and 1 tablet Complete Mini protease inhibitor (Roche)). Cell lysates were stored at −80° C. until further use. Upon binding the resin lysates were washed 3× with high stringency wash buffer (1 M NaCl, 25 mM Tris, pH 7.5, 60 mM MgCl2, 1 mM DTT) and 3× with low stringency wash buffer (150 mM NaCl, 25 mM Tris, pH 7.5, 60 mM MgCl2, 1 mM DTT). […]
# Assembly of a focused library, consisting of 3379 purine like compounds, was described previously [Carlson et al. (2013). Fluorescence Linked Enzyme Chemoproteomic Strategy for Discovery of a Potent and Selective DAPK1 and ZIPK Inhibitor. […] The lysates were eluted from the filter plate onto a catch plate by centrifugation and the fluorescence of the eluates was measured. […] Next, the presence of GFP-Hsp70i in the eluates from the 197 primary hits was determined by Western blot. […]
# Hsp70i = Hsp70i (Homo sapiens, UniProt P0DMV8); assay: Thermofluor assay, purified Hsp70i; type: binding; design: Full length Hsp70 (black arrow) and tryptic fragments (blue arrows); His tag (cleaved yes); made in house; conditions: for effect on Tm of Hsp70i: compound alone; for increase of the Tm of Hsp70i: nucleotide alone, FIG. 4E/4G
# Description: Protein Purification: Plasmids were provided for human HSPA1A, HSPA8, and HSPA1A C306D. Plasmids were transformed in Rosetta competent cells and single colonies were picked from streaked LB/ampicillin/chloramphenicol plates. Cultures were grown at 37° C. for 4-6 hours, were cooled to 15° C. and expression was induced overnight with 200 uM isopropyl 1-thio-β-D-galactopyranoside. Cells were pelleted and resuspended in Ni-lysis buffer (50 mM Na2HPO4, 300 mM NaCl, 10 mM Imidazole, 0.05% Tween-20) supplemented with Complete Mini protease inhibitor tablets (Roche, Mannheim, Germany) and […], and then sonicated. The cells were again pelleted and the supernatant was incubated with complete His-Tag purification resin (Roche, Mannheim, Germany) for 5 hours at 4° C. The resin was washed with Ni-wash buffer (50 mM Na2HPO4, 300 mM NaCl, 20 mM Imidazole, 0.05% Tween-20) and eluted with Ni-elution buffer (50 mM Na2HPO4, 300 mM NaCl, 250 mM Imidazole, 0.05% Tween-20). The elution was then incubated with tobacco etch virus protease overnight at 4° C. The following day the elution was incubated with the γ-phosphate ATP sepharose resin for 30 minutes at 4° C. Next the resin was washed with ATP-wash buffer (50 mMTris-HCl, 60 mM MgCl2, 60 mM KCl, 10 mM Citrate) supplemented with 1 mM DTT and then ATP-wash buffer supplemented with 2 mM ATP was added to the resin to elute the protein. The final elutions were concentrated in Amicon Ultra-15 Centrifugal Filter Units (EMD Millipore, Billerica, Mass.) and buffer exchanged into 25 mM HEPES, 5 mM MgCl2, 10 mM KCl (pH 7.5) and stored at −80° C. until use.
# (§2) Thermofluor Assay: SYPRO orange (Molecular Probes, Eugene, Oreg.) was diluted 1:1000 in 25 mM HEPES, 5 mM MgCl2, 10 mM KCl (pH 7.5) and purified Hsp70i, Hsc70, Hsp70i C306, or Hsp90, was then added to a final dilution of 0.04 mg/ml. Where indicated 0.001% or 0.01% Triton X-100 (Sigma) was also added. The indicated compound or DMSO was then added at the specified concentration and each sample was added as 5 replicates to a 384 well plate (BioRad, Hercules, Calif.). A melt curve protocol (25° C. to 90° C., increasing 0.5° C. and a plate reading every 30 seconds) was run on a CFX384 Touch™ Real-Time PCR Detection System (BioRad). To determine the midpoint of the protein unfolding transition or Tm, GraphPad Prisim4 (La Jolla, Calif.) was used to normalize the melt curve and to calculate the first derivate of the melt curve, with the steepest point of the slope being the Tm.
# [1] = tested on: Hsp70i, Hsc70, Grp78, Grp75, Hsp90; assay: Elution of HEK 293T cell lysate proteins from the ATP resin (silver stain, Western blot); type: binding; conditions: Western blot
# Description: as §1, with “DTT). Next the lysates were transferred to 0.2 μm PVDF filter 96-well plate (Corning, Corning, N.Y.) sitting on top of a black flat-bottomed 96-well catch plate (Corning).” for “DTT).”
# HS-72 specifically targets Hsp70i over other members of the Hsp70 superfamily. […] To more thoroughly determine the specificity of HS-72 for Hsp70i, the HEK 293T eluates were also analyzed for other Hsp70 family members Hsc70, Grp78, and Grp75, as well as Hsp90 by Western blot. […] The linker on the resin was cleaved using sodium dithionite and the samples were subjected to SDS-PAGE and analyzed by Western blot, silver stain, and mass spectrometry. […]
# Hsp90 = assay: Thermofluor assay, Hsp90; type: binding
# Description: as §2
# Her2 and Akt = assay: Degradation assay (Western blot of client proteins); type: cell-based; conditions: compound alone
# Description: Western Blotting: SDS-PAGE was carried out using Criterion™ Cell system using pre-casted 4-20% or 4-15% Criterion™ Tris-HCl gels (BioRad, Hercules, Calif.). For Western blotting gels were run at 200V for 1 hour using the PowerPac basic power supply (BioRad, Hercules, Calif.). Next, gels were transferred to nitrocellulose for blotting at 100V for 1 hour (Fisher Scientific, Waltham, Mass.). Nitrocellulose membranes were blocked with 5% dry non-fat milk in phosphate-buffered saline (PBS) with 0.01% Tween-20 for 1 hour at room temperature. Membranes were incubated with primary antibodies (1:1000 dilution) overnight at 4° C. The next day membranes were washed 3× in PBS-Tween, incubated for 1 hour at room temperature with secondary antibodies, and further washed 3× in PBS-Tween. ECL Plus Western blotting reagent (Pierce Biotechnology, Rockford, Ill.) was used to detect antibodies. GFP, Her2, Akt, Hsp70, Hsc70, Grp78, Grp75, and Hsp90 primary antibodies and all associated secondary antibodies were purchased from Cell Signaling Technology (Danvers, Mass.).
# Degradation Assay: The specified cells were seeded overnight and then treated with the indicated concentration of compound for 24 hours. The cells were then harvested and subjected to analysis by Western blot.
# SkBr3 = assay: Cell proliferation, SkBr3; type: cell-based
# Description: (§3) Cell Proliferation: Cell proliferation was determined using a Hoechst stain (Sigma, St. Louis, Mo.) to quantify DNA. 5,000 cells of the designated cell line were plated in 96 well plates and treated the next day, designated as time point 0, with the indicated concentration of the specified compound maintained for the duration of the assay. At the indicated time points the media was removed and plated frozen at −80° C. Double distilled H2O was then added and the plates were incubated at 37° C. for 1 hour. After 1 hour the plates were frozen at −80° C. After freezing the plates were thawed and Hoechst stain was diluted 1:1000 in THE buffer (10 mM Tris, 2M NaCl, 1 mM Na2EDTA). The final fluorescence was measured on the Victor X2 plate reader at 355/460 nm, and cell proliferation was determined with the formula: % Cell Proliferation=100×(Sample fluorescence−background fluorescence)/(Control fluorescence−background fluorescence).
# MCF7 = assay: Cell proliferation, MCF7; type: cell-based
# Description: as §3
# Sequence of Hsp70i (P0DMV8 whole entry, the tested form may be a part): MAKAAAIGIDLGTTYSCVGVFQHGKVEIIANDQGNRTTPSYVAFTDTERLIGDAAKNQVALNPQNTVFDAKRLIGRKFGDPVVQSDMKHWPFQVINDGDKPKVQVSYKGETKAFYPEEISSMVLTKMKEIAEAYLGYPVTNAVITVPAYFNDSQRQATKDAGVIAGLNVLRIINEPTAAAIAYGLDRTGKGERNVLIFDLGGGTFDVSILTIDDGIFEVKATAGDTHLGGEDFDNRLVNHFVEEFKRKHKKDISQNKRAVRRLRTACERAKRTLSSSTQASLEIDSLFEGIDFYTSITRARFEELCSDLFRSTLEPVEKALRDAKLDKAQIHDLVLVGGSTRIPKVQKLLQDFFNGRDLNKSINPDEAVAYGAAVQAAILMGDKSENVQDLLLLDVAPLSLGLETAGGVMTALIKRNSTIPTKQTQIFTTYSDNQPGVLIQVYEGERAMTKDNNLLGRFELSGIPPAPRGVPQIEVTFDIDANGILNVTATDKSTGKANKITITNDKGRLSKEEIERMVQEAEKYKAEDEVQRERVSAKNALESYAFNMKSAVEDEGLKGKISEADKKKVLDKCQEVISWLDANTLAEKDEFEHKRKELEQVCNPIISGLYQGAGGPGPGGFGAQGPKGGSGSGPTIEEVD
# T1 sequence (P0DMV8 whole entry): as the sequence (P0DMV8 whole entry, the tested form may be a part) above
smiles,measurement,setting,value
"Nc1ncnc2c1ncn2[C@@H]1O[C@H](COP(=O)(O)OP(=O)(O)O)[C@@H](O)[C@H]1O [ADP, reference compound]",nucleotide concentration needed to release bound GFP-Hsp70i from the γ-linked ATP resin,GFP-Hsp70i,mM
same,effect on Tm of Hsp70i,Hsp70i,increase the Tm of Hsp70i in a dose dependent manner
same,increase of the Tm of Hsp70i,Hsp70i,2.5 °C
"Nc1ncnc2c1ncn2[C@@H]1O[C@H](COP(=O)(O)OP(=O)(O)OP(=O)(O)O)[C@@H](O)[C@H]1O [ATP, reference compound]",nucleotide concentration needed to release bound GFP-Hsp70i from the γ-linked ATP resin,GFP-Hsp70i,low μM
same,effect on Tm of Hsp70i,Hsp70i,increase the Tm of Hsp70i in a dose dependent manner
same,increase of the Tm of Hsp70i,Hsp70i,3 °C
same,Hsp70 family members and Hsp90 eluted from the ATP resin,[1],All the Hsp70 family members and Hsp90 are eluted
"Cc1nn(-c2ccc(C(N)=O)c(N[C@H]3CC[C@H](O)CC3)c2)c2c1C(=O)CC(C)(C)C2 [HS-10, 2-(((1r,4r)-4-hydroxycyclohexyl)amino)-4-(3,6,6-trimethyl-4-oxo-4,5,6,7-tetrahydro-1H-indazol-1-yl)benzamide, reference compound]",increase of the Tm of Hsp90,Hsp90,10.5 °C
same,Tm of Hsp90 in presence of compound,Hsp90; from 50° C. without compound,60.5 °C
same,Hsp70 protein levels,Her2 and Akt,increased Hsp70 protein levels
same,Akt and Her2 expression,Her2 and Akt; BT474 breast cancer cells,induced degradation of Her2 and Akt
"CCCn1c(NC(=O)[C@@H]2CCCN(c3cnccn3)C2)nc2ccccc21 [HS-71, (R)—N-(1-propyl-1H-benzo[d]imidazol-2-yl)-1-(pyrazin-2-yl)piperidine-3-carboxamide]",cell proliferation,"SkBr3; SkBr3, 48 and 72 hours at 25 uM and 50 uM",inhibition in proliferation
same,cell proliferation,"SkBr3; SkBr3, 24 hours",no effect on proliferation
same,effect on Tm of Hsp70i,Hsp70i,does not change
same,effect on Tm of the ATP bound Hsp70i,Hsp70i; in presence of ATP,does not change
same,cell proliferation,"MCF7; MCF7, 24 hours",no effect on proliferation
same,cell proliferation,"MCF7; MCF7, 48 hours at 25 uM and 50 uM",inhibition
same,"cell proliferation, concentration with significant inhibition","MCF7; MCF7, 72 hours",50 uM alone
"NS(=O)(=O)C#Cc1ccccc1 [PES, pifithrin-μ, reference compound]",effect on Tm of Hsp70i,Hsp70i,no dose dependent effect
"N#Cc1ccc(COC[C@H]2O[C@@H](n3c(NCc4ccc(Cl)c(Cl)c4)nc4c(N)ncnc43)[C@H](O)[C@@H]2O)cc1 [VER, VER-15508, reference compound]",effect on Tm of Hsp70i,Hsp70i,increase
